{"source": "the kinase profiling compilation of Christmann-Franck et al. (2016)", "data": [{"target": "SGK1 (human) (UniProt O00141)", "sequence (O00141 whole entry, looked up)": "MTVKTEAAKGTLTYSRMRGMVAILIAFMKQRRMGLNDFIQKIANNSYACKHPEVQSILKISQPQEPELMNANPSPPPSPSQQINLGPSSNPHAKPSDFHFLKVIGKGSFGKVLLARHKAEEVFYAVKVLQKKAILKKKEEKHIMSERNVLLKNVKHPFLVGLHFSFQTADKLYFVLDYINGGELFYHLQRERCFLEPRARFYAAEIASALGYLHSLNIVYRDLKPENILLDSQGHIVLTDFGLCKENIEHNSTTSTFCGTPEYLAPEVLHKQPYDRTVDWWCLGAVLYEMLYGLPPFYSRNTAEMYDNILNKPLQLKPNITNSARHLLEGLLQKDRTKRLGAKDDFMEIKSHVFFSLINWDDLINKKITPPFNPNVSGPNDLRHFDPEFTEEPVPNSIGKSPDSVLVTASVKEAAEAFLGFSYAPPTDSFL", "assay": "Flashplate", "units": {"Ki": "µM"}, "values": [{"compound": "Cc1nccn2c(-c3ccnc(NCC4(O)CC4)n3)c(-c3ccc(F)cc3F)nc12", "Ki": "> 10"}, {"compound": "COc1cc(-c2ccc3c(c2)Nc2ccc(C(=O)NCCNC(C)=O)cc2NC3=O)ccc1O", "Ki": 10}, {"compound": "COc1cccc([C@@H](C)NC(=O)c2ccc(-c3ccncn3)cc2)c1", "Ki": 0.631}, {"compound": "COc1cc(C)c(Cl)cc1NC(=O)Nc1cnc(C#N)cn1", "Ki": "> 10"}, {"compound": "OCCCn1cnc(-c2ccc(F)cc2)c1-c1ccncc1", "Ki": "> 10"}, {"compound": "CCCC(=O)Nc1n[nH]c2ccc(-c3nnn(Cc4ccccc4)c3-c3ccccc3)cc12", "Ki": 1.58}, {"compound": "COc1cc(/C=C2/SC(=S)NC2=O)ccc1O", "Ki": 3.16}, {"compound": "Cc1nn(C)c2c1c(=O)c1cc(Cl)ccc1n2OCC(C)C", "Ki": "> 10"}, {"compound": "Cc1n[nH]c2cnc(-c3cncc(OC[C@@H](N)Cc4cccc(C(F)(F)F)c4)c3)cc12", "Ki": 0.0631}, {"compound": "O[C@H]1CC[C@H](Nc2cc(Cl)nc(-c3c[nH]c4ncccc34)n2)CC1", "Ki": 1}, {"compound": "O=C(Nc1cnc2[nH]cc(-c3ccccc3)c2c1)c1ccc(Cl)cc1", "Ki": 5.01}, {"compound": "CC(C)N(C)C(=O)c1c(-c2ccc3[nH]ncc3c2)nnn1Cc1ccccc1", "Ki": 0.631}, {"compound": "CCN1C(=O)N(C)c2cnc(Nc3ccc(C(=O)NC4CCN(C)CC4)cc3OC)nc2N1C1CCCC1", "Ki": "> 10"}, {"compound": "CC(=O)Nc1cc(N)c(C#N)c(-c2ccsc2)n1", "Ki": "> 10"}, {"compound": "CCOc1nc(NC(C)=O)cc(N)c1C#N", "Ki": "> 10"}, {"compound": "CC(C)Cn1c(N)nc2ccc(-c3c(-c4ccc(F)cc4)nc4sccn34)cc21", "Ki": "> 10"}, {"compound": "COc1cc(-c2ccc3c(c2)Nc2ccc(CCOc4ccc(N5CCOCC5)cc4)cc2NC3=O)ccc1CC#N", "Ki": "> 10"}, {"compound": "CNS(=O)(=O)c1ccccc1Nc1nc(Nc2cc(N3CCN(C(C)=O)CC3)ccc2OC)ncc1Br", "Ki": "> 10"}, {"compound": "c1ccc(Cc2cc(-c3ccc4[nH]ncc4c3)on2)cc1", "Ki": 1.58}, {"compound": "O=C1CCCc2oc3cc(C(F)(F)F)ccc3c(=O)c21", "Ki": "> 10"}, {"compound": "Fc1cnc(Nc2ccccc2)nc1Nc1ccccc1", "Ki": "> 10"}, {"compound": "COc1cc(Nc2ncc([N+](=O)[O-])c(Nc3ccccc3C(N)=O)n2)cc(OC)c1OC", "Ki": 0.2}, {"compound": "Cc1n[nH]c2ncc(C#N)c(-c3ccccc3)c12", "Ki": 3.98}, {"compound": "Nc1ncnc2c1c(-c1cccc(OCc3ccccc3)c1)cn2[C@H]1C[C@H](CN2CCCC2)C1", "Ki": "> 10"}, {"compound": "N#Cc1ccc(NC(=O)Nc2ccnc3cc(C(F)(F)F)ccc23)nc1", "Ki": "> 10"}, {"compound": "O=C(Nc1nc2ccccc2n1CCCO)c1cccc([N+](=O)[O-])c1", "Ki": "> 10"}, {"compound": "Cc1ccccc1NC(=O)Nc1ccc(-c2coc3ncnc(N)c23)cc1", "Ki": 2.51}, {"compound": "CCCn1c(C2CCNCC2)nc(-c2ccc(Cl)c(Cl)c2)c1-c1ccnc(NC2CCCCC2)n1", "Ki": 3.16}, {"compound": "CC(C)(C)NC(=O)c1ccc2nc3[nH]c4ccccc4c3nc2c1", "Ki": "> 10"}, {"compound": "Nc1nonc1-n1nnc(C(=O)N/N=C/c2cccs2)c1-c1ccccc1", "Ki": "> 10"}, {"compound": "O=c1ncn2nc(Sc3ccc(F)cc3F)ccc2c1-c1c(Cl)cccc1Cl", "Ki": "> 7.94"}, {"compound": "O=C1CCCN1Cc1ccc2c(c1)[nH]c(=O)c1cccn12", "Ki": "> 10"}, {"compound": "Cc1cccc(NC(=O)Nc2ccc3c(c2)CCc2sc4ncnc(N)c4c2-3)c1", "Ki": "> 10"}, {"compound": "Cc1nccn2c(-c3ccnc(NCC(C)(C)CO)n3)c(-c3ccc(F)cc3F)nc12", "Ki": "> 10"}, {"compound": "COc1cc(/C=C2\\SC(=O)NC2=O)ccc1O", "Ki": 3.98}, {"compound": "Nc1nc2ccc(-c3c(-c4ccc(F)cc4)nc4sccn34)cc2n1CC1CC1", "Ki": "> 10"}, {"compound": "NC(=O)c1sc(-n2cnc3ccccc32)cc1OCc1ccccc1C(F)(F)F", "Ki": "> 10"}, {"compound": "Nc1ccc(-c2cncc(OC[C@@H](N)Cc3c[nH]c4ccccc34)c2)cc1C(=O)c1cccc(Cl)c1", "Ki": "> 10"}, {"compound": "Nc1ncc(-c2ccoc2)c2scc(-c3ccc(NC(=O)Nc4cccc(F)c4)cc3)c12", "Ki": 6.31}, {"compound": "O=C1NCCc2[nH]c(-c3ccnc(-c4ccccc4F)c3)cc21", "Ki": "> 10"}, {"compound": "Cc1cccc(NC(=O)Nc2ccc(-c3csc4c(C#CC(C)(C)N)cnc(N)c34)cc2)c1", "Ki": 3.16}, {"compound": "O=c1c(NCc2cccc(C(F)(F)F)c2)c(Nc2ccncc2)c1=O", "Ki": 2}, {"compound": "NCCCn1cc(-c2cc(-c3cc4ccccc4s3)c3[nH]ncc3c2)c2nc(N)ncc21", "Ki": 0.501}, {"compound": "O=c1[nH]sc2c1c(=O)c1cc(F)c(NCc3ccccc3)c(F)c1n2C1CC1", "Ki": "> 10"}, {"compound": "NC(=O)c1cc2c(-c3cccc(F)c3)cncc2s1", "Ki": 3.16}, {"compound": "CN1CCC[C@H]1COc1cncc(CCc2ccccc2)c1", "Ki": "> 10"}, {"compound": "Cc1cccc(NC(=O)Cc2ccc(-c3cccc4[nH]nc(N)c34)cc2)c1", "Ki": 0.794}, {"compound": "O=C(O)c1ccccc1Nc1ccnc(Nc2cccc(O)c2)n1", "Ki": 0.794}, {"compound": "N[C@@H](COCc1ccccc1)COc1cncc(/C=C/c2ccncc2)c1", "Ki": "> 10"}, {"compound": "COc1cc2c(Oc3ccc4[nH]c(C)cc4c3F)ncnc2cc1OCCCN1CCCC1", "Ki": "> 10"}, {"compound": "Cc1cccc(NC(=O)Nc2ccc(-c3csc4c(C#CCNS(C)(=O)=O)cnc(N)c34)cc2)c1", "Ki": 10}, {"compound": "COC(=O)c1ccccc1-c1ccc2c(c1)Nc1ccccc1NC2=O", "Ki": "> 10"}, {"compound": "COc1ccc(CNc2c(Nc3ccc4[nH]ncc4c3)c(=O)c2=O)cc1", "Ki": "> 10"}, {"compound": "CCN(CC)CC#Cc1ccc2c(c1)-c1[nH]nc(-c3ccc(C#N)nc3)c1C2", "Ki": "> 10"}, {"compound": "CC(C)(O)CNc1nccc(-c2c(-c3ccc(F)cc3F)nc3c(CC4CC4)nccn23)n1", "Ki": "> 10"}, {"compound": "CN1CCC(NC(=O)c2cc3c(-c4ccccc4)n[nH]c3s2)CC1", "Ki": 6.31}, {"compound": "OCCNc1cc2cc(-c3ccccc3)ccc2cn1", "Ki": "> 10"}, {"compound": "CC(C)(CO)CNc1nccc(-c2c(-c3ccc(F)cc3)nc3cnccn23)n1", "Ki": "> 10"}, {"compound": "CC(=O)Nc1cc(N)c(C#N)c(-c2ccc3ccccc3c2)n1", "Ki": "> 10"}, {"compound": "COc1cc(Nc2ncnc3ccc(-c4ccc(CN5C[C@@H]6C(CO)[C@@H]6C5)cc4)cc23)ccc1Oc1ccccc1", "note": "(stereo partly drawn)", "Ki": "> 10"}, {"compound": "Cc1nc(N)sc1-c1ccnc(Nc2ccc(N3CCOCC3)cc2)n1", "Ki": 0.251}, {"compound": "O=C(Cc1ccccc1)Nc1cccc(-c2nc3sccn3c2-c2ccnc(Nc3ccc(N4CCOCC4)cc3)n2)c1", "Ki": "> 10"}, {"compound": "Nc1c(-c2ccc(NC(=O)Nc3cccc(C(F)(F)F)c3)cc2)ccc2nccnc12", "Ki": "> 10"}, {"compound": "CC1=NN(c2cccc(Br)c2)C(=O)/C1=C/c1c(C)c(C#N)c2nc3ccccc3n2c1O", "Ki": "> 10"}, {"compound": "Cc1cccc(NC(=O)Nc2ccc(-c3csc4c(-c5cnn(C[C@H](C)O)c5)cnc(N)c34)cc2)c1", "Ki": "> 10"}, {"compound": "O=C(Nc1cnccn1)Nc1ccnc2cc(C(F)(F)F)ccc12", "Ki": 1}, {"compound": "Cc1cccc(NC(=O)Nc2ccc(-c3cccc(C(N)=O)c3)cc2)c1", "Ki": "> 10"}, {"compound": "NCCNS(=O)(=O)c1cccc(C(=O)Nc2ccc(-c3n[nH]c(=O)c4ccccc34)cc2)c1", "Ki": "> 10"}, {"compound": "COc1ccc(C(=O)Nc2cnc3[nH]cc(-c4ccccc4)c3c2)cc1", "Ki": 10}, {"compound": "C[C@@H](NC(=O)c1ccc(-c2ccncc2)cc1)c1ccccc1", "Ki": 2}, {"compound": "Nc1n[nH]c2ccc(-c3nnn(Cc4ccccc4)c3I)cc12", "Ki": 0.0631}, {"compound": "O=c1[nH]c2sc3c(c2c2nc(-c4ccncc4)nn12)CCCC3", "Ki": "> 10"}, {"compound": "Fc1ccc(-c2nc(-c3ccc(F)cc3)c(-c3ccncc3)[nH]2)cc1", "Ki": "> 10"}, {"compound": "CC[C@H](CO)Nc1nc(NCc2ccccc2)c2ncn(C(C)C)c2n1", "Ki": "> 10"}, {"compound": "CCCCCCCCCCCCOc1ccc(NC(=N)N)cc1NC(=N)N", "Ki": "> 10"}, {"compound": "NCCC(C(=O)Nc1ccc2[nH]ncc2c1)c1ccc(Cl)c(Cl)c1", "note": "(stereo not drawn)", "Ki": 0.02}, {"compound": "Cc1csc(NC(=O)c2sc3nc(-c4ccncc4)ccc3c2N)n1", "Ki": "> 10"}, {"compound": "O=C(Nc1cccc(C(F)(F)F)n1)Nc1ccnc2c(Cl)cccc12", "Ki": "> 10"}]}]}
